# Experimental data: the supplement of paper PMC10307832
# Columns and labels:
# Experiment in all cases: relative viability (nuclei count vs DMSO), 5 days (fraction); higher = more cells survive
# [1] = compound: Cc1ccc(Nc2nccc(N(C)c3ccc4c(C)n(C)nc4c3)n2)cc1S(N)(=O)=O [Pazopanib] + CC(=O)c1c(C)c2cnc(Nc3ccc(N4CCNCC4)cn3)nc2n(C2CCCC2)c1=O [Palbociclib] (partner 0.5 µM)
# In short: (§1)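 Relative viability was taken as the ratio of nuclei in treated wells to nuclei in vehicle wells. Lung cancer cell lines in 1536-well plates received compounds by pin tool one day after seeding, either one drug alone or a fixed anchor-drug dose plus five library-drug doses (not always all listed) in √10 steps. Nuclei were counted on 4× images after 5 days of treatment, and values are medians of duplicate plates.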
# [2] = compound: Cc1ccc(Nc2nccc(N(C)c3ccc4c(C)n(C)nc4c3)n2)cc1S(N)(=O)=O [Pazopanib] + C[C@]1(O)C[C@@H](c2nc(-c3ccc4ccc(-c5ccccc5)nc4c3)c3c(N)nccn32)C1 [Linsitinib] (partner 1 µM)
# In short: as §1
# [3] = compound: Cc1ccc(Nc2nccc(N(C)c3ccc4c(C)n(C)nc4c3)n2)cc1S(N)(=O)=O [Pazopanib] + CC1(C)CCC(c2ccc(Cl)cc2)=C(CN2CCN(c3ccc(C(=O)NS(=O)(=O)c4ccc(N[C@H](CCN5CCOCC5)CSc5ccccc5)c(S(=O)(=O)C(F)(F)F)c4)cc3)CC2)C1 [Navitoclax] (partner 0.5 µM)
# In short: as §1
# [4] = compound: Cc1ccc(C(=O)Nc2ccc(CN3CCN(C)CC3)c(C(F)(F)F)c2)cc1C#Cc1cnc2cccnn12 [Ponatinib] + Cc1cc(Nc2cc(N3CCN(C)CC3)nc(Sc3ccc(NC(=O)C4CC4)cc3)n2)n[nH]1 [Tozasertib] (partner 0.1 µM)
# In short: as §1
Cell Line,relative viability ([1]; first compound 0.01 µM),relative viability ([1]; first compound 0.03162 µM),relative viability ([1]; first compound 0.1 µM),relative viability ([1]; first compound 0.3162 µM),relative viability ([1]; first compound 1 µM),relative viability ([2]; first compound 0.01 µM),relative viability ([2]; first compound 0.03162 µM),relative viability ([2]; first compound 0.1 µM),relative viability ([2]; first compound 0.3162 µM),relative viability ([2]; first compound 1 µM),relative viability ([3]; first compound 0.01 µM),relative viability ([3]; first compound 0.03162 µM),relative viability ([3]; first compound 0.1 µM),relative viability ([3]; first compound 0.3162 µM),relative viability ([3]; first compound 1 µM),relative viability ([4]; first compound 0.002 µM),relative viability ([4]; first compound 0.006325 µM),relative viability ([4]; first compound 0.06325 µM),relative viability ([4]; first compound 0.2 µM)
HCC-827,0.558,0.456,0.516,0.444,0.471,1.01,0.935,0.938,0.933,0.849,1.06,1.02,1.11,1.07,0.98,0.403,0.42,0.427,0.414
LK-2,0.615,0.803,0.69,0.709,0.729,0.486,0.564,0.475,0.517,0.524,0.67,0.925,0.863,0.788,0.821,,0.174,0.188,0.209
HCC-366,0.36,0.422,0.449,0.386,0.353,0.472,0.73,0.674,0.828,0.885,1.02,1.11,1.14,0.984,1.19,0.112,0.108,0.0686,0.0671
BEN,0.447,0.467,0.498,0.506,0.482,0.819,0.969,0.894,0.956,0.898,0.0655,0.0679,0.0737,0.0724,0.0586,0.544,0.52,0.486,0.533
NCI-H23,0.42,0.531,0.614,0.594,0.586,0.505,0.629,0.556,0.567,0.842,0.899,0.843,1.16,1.02,1.06,0.351,0.419,0.25,0.197
NCI-H1793,,0.352,0.3,0.341,0.399,,0.871,0.835,0.83,0.905,,0.421,0.387,0.463,0.542,0.357,0.388,0.29,0.204
201T,0.332,0.356,0.343,0.37,0.412,0.942,1.04,1.06,1.06,0.989,1.21,1.22,1.26,1.18,1.17,0.924,1.01,0.966,0.926
NCI-H520,0.185,0.23,0.244,0.224,0.188,,1.05,1,0.946,1.05,,1.18,0.955,1.05,0.98,0.45,0.419,0.397,0.372
NCI-H727,0.662,,0.634,0.597,0.718,0.311,0.336,0.35,0.237,0.245,0.506,0.417,0.656,0.513,0.572,0.607,0.593,0.531,0.669
HCC-15,0.7,0.708,0.729,0.752,0.788,0.872,0.905,0.94,0.882,1.03,0.698,0.706,0.743,0.713,0.815,0.401,0.479,0.432,0.328
NCI-H460,0.212,0.287,0.122,0.0783,0.262,0.823,1.13,0.838,0.98,0.827,0.849,1.19,1.34,1.16,1.15,0.407,0.526,0.19,0.0908
EPLC-272H,,0.366,0.304,0.334,0.409,0.98,1.13,1.25,1.26,1.17,1.09,1.09,1.21,1.16,1.1,0.246,0.394,0.365,0.307
